Results published in PMC10800876, “Evaluation of proline-rich antimicrobial peptides as potential lead structures for novel antimycotics against Cryptococcus neoformans” (Frontiers in Microbiology, 2024).
≈ marks a conversion by molar mass, not a printed value. Like-named read-outs stand apart in the source and are kept apart here. Residues, ends and D or L forms follow the SMILES beside them. *: point of attachment. Orn(α-tetramethylguanidino) = CN(C)C(=N[C@@H](CCCN)C(=O)*)N(C)C

How the values were obtained:
[1] = tested on: C. neoformans strains 1841, H99, and KN99α; experiment: Broth microdilution assay (MIC); format: cell-based, Cryptococcus neoformans
C. neoformans KN99α = experiment: Antifungal activity assay (CFU on SAB agar); format: cell-based, Cryptococcus neoformans; settings: treatment 3 h, 30 °C, mean ± SD, n = 4; for cell count C. neoformans KN99α, 24 h: CFU counted after 24 h; for cell count C. neoformans KN99α, 48 h: CFU counted after 48 h
C. neoformans H99 = experiment: Antifungal activity assay (CFU on SAB agar); format: cell-based, Cryptococcus neoformans; settings: treatment 3 h, 30 °C, mean ± SD, n = 4; for cell count C. neoformans H99, 24 h: CFU counted after 24 h; for cell count C. neoformans H99, 48 h: CFU counted after 48 h
C. neoformans 1841 [2] = experiment: Antifungal activity assay (CFU on SAB agar); format: cell-based, Cryptococcus neoformans; settings: treatment 3 h, 30 °C, mean ± SD, n = 4; for cell count C. neoformans 1841, 24 h: CFU counted after 24 h; for cell count C. neoformans 1841, 48 h: CFU counted after 48 h
[3] = tested on: C. neoformans 1841 (serotype D); experiment: microbe, parasite or virus in culture; settings: Cryptococcus neoformans
[4] = tested on: C. neoformans H99 (serotype A); experiment: microbe, parasite or virus in culture; settings: Cryptococcus neoformans
[5] = tested on: C. neoformans KN99α (serotype A, mating type MATα); experiment: microbe, parasite or virus in culture; settings: Cryptococcus neoformans
[6] = tested on: HepG2 and HEK293 cell lines; experiment: Cytotoxicity (MTT), for both cell lines; format: cell-based, human; settings: 125 mg/L, 24 h
Protocol: Human embryonic kidney (HEK293) and human hepatoma (HepG2) cells were cultured in Dulbecco’s modified Eagle’s/Ham’s F-12 medium (DMEM/F-12) containing 10% (v/v) fetal bovine serum and 1% (v/v) penicillin/streptomycin. Cells (20,000 in 200 μL per well) were seeded into a 96-well plate (polystyrene F-bottom, Greiner Bio-One GmbH) and incubated for 24 h (37°C, 5% CO2). Cells were washed with PBS (100 μL) and peptide solutions (0.6 g/L in DMEM/F-12) were added. The positive control was a dilution series from 12 to 1.5% (v/v) DMSO and the negative control was 12% (v/v) PBS. After incubation (37°C, 24 h, 5% CO2), the supernatant was discarded, fresh medium (90 μL/well) and MTT (10 μL/well, 5 g/L in PBS) were added, and the plate was incubated for 4 h (37°C, 5% CO2). A solution (100 μL) of sodium dodecyl sulfate (10% (v/v)) in hydrochloric acid (10 mmol/L) was added and the plate was incubated again for 24 h (37°C, 5% CO2). Absorbance was recorded at 570 nm relative to the reference at 650 nm ([…] ™ microplate reader). All samples were corrected for the background absorbance of the medium. Relative cell viability was calculated as the ratio of absorbances recorded for treated and untreated cells ([Kolano et al., 2021]; [Brakel et al., 2022a],[b]).

[7] = tested on: C. neoformans strains 1841, H99, and KN99α; experiment: Antifungal activity assay (CFU); format: cell-based, Cryptococcus neoformans; settings: 2.5 μmol/L, 3 h incubation
[8] = tested on: C. neoformans H99 (serotype A)
[9] = tested on: C. neoformans KN99α (serotype A, mating type MATα)
[10] = tested on: C. neoformans 1841 (serotype D)
C. neoformans 1841 [11] = experiment: Scanning electron microscopy, damaged cells; format: cell-based, Cryptococcus neoformans; settings: 200 μmol/L, 10^8 CFU/mL, 3 h, 30°C
Protocol: Overnight cultures of C. neoformans 1841 were prepared as described and adjusted with 50% SAB in phosphate buffer to reach 1 × 10^8 CFU/mL. Aqueous peptide solutions (20 μL) were added to the cell suspension (80 μL) to give a final peptide concentration of 200 μmol/L. Samples were incubated at 30°C on an orbital shaker (750 rpm) for 3 h. Samples were centrifuged (2,000 × g, 10 min, 4°C, Microfuge 22R, Beckmann Coulter), cell pellets were washed with ice-cold phosphate-buffered saline (PBS, 100 μL) and centrifuged again. Cell pellets were re-suspended in PBS (25 μL) and adhered overnight in humid atmosphere to glass coverslips (Borosilicate Glass, VWR International GmbH) previously coated with 0.001% poly-L-lysine (in case of Critical-Point Drying). Cells were fixed (2% glutaraldehyde, 2% paraformaldehyde, in PBS) for 60 min and afterwards stained with 1% OsO4 in PBS for 60 min. The cells were gradually dehydrated in ethanol series (30, 50, 70, 85, 90, 96% (once), and 100% (thrice) for 10 min. The coverslips were critical-point-dried (Baltec CPD 030, BAL-TEC GmbH, Schalksmühle, Germany) or air-dried after incubation with HMDS (3 min, RT) and sputter coated with 20 nm gold/palladium (Baltec MED 020, BAL-TEC GmbH). Cells were visualized using the SEM secondary electron detector (Zeiss EVO LS 15 LaB6, Carl Zeiss Microscopy Deutschland GmbH).
GraphPad Prism 10.0.3 software was used for statistical analysis of the recorded data. A Dunnett’s multiple comparisons test (Ordinary-one-way ANOVA) was performed.

C. neoformans 1841 [12] = experiment: Time-kill assay; format: cell-based, Cryptococcus neoformans; settings: 2.5 μmol/L, 30°C, up to 24 h
Protocol: The kinetic effects of the antifungal activity were determined by diluting overnight cultures to 5 × 10^4 CFU/mL with 50% SAB in phosphate buffer. Aqueous peptide solutions (20 μL) were added to the cell suspension (80 μL) to give a final peptide concentration of 2.5 μmol/L. Samples were incubated at 30°C on an orbital shaker (750 rpm, Titramax 1,000, Heidolph Instruments GmbH & Co. KG) for 24 h. Before incubation (0 min) and after 45 min, 90 min, 3 h, 6 h, and 24 h incubation, aliquots (10 μL) of samples were taken and diluted with phosphate buffer (10 mmol/L, pH 7.5) to observe countable cell colonies. Aliquots (100 μL) of the diluted cell suspensions were plated on SAB agar plates. Plates were incubated at 30°C and colonies were counted after 24 h.

[13] = broth microdilution, 50% SAB in phosphate buffer, 30°C, read after 48 h, n = 6
[14] = broth microdilution, 50% SAB in phosphate buffer, 30°C, read after 24 h, n = 6

| SMILES | cell count C. neoformans KN99α, 24 h (C. neoformans KN99α; 0.25 µmol/L) | cell count C. neoformans KN99α, 48 h (C. neoformans KN99α; 0.25 µmol/L) | cell count C. neoformans KN99α, 24 h (C. neoformans KN99α; 2.5 µmol/L) | cell count C. neoformans KN99α, 48 h (C. neoformans KN99α; 2.5 µmol/L) | cell count C. neoformans KN99α, 24 h (C. neoformans KN99α; 25 µmol/L) | cell count C. neoformans KN99α, 48 h (C. neoformans KN99α; 25 µmol/L) | cell count C. neoformans H99, 24 h (C. neoformans H99; 0.25 µmol/L) | cell count C. neoformans H99, 48 h (C. neoformans H99; 0.25 µmol/L) | cell count C. neoformans H99, 24 h (C. neoformans H99; 2.5 µmol/L) | cell count C. neoformans H99, 48 h (C. neoformans H99; 2.5 µmol/L) | cell count C. neoformans H99, 24 h (C. neoformans H99; 25 µmol/L) | cell count C. neoformans H99, 48 h (C. neoformans H99; 25 µmol/L) | cell count C. neoformans 1841, 24 h (C. neoformans 1841 [2]; 0.25 µmol/L) | cell count C. neoformans 1841, 48 h (C. neoformans 1841 [2]; 0.25 µmol/L) | cell count C. neoformans 1841, 24 h (C. neoformans 1841 [2]; 2.5 µmol/L) | cell count C. neoformans 1841, 48 h (C. neoformans 1841 [2]; 2.5 µmol/L) | cell count C. neoformans 1841, 24 h (C. neoformans 1841 [2]; 25 µmol/L) | cell count C. neoformans 1841, 48 h (C. neoformans 1841 [2]; 25 µmol/L) | also measured |
| --- | --- | --- | --- | --- | --- | --- | --- | --- | --- | --- | --- | --- | --- | --- | --- | --- | --- | --- | --- |
| C[C@@H]1[C@H](O)[C@@H](C)/C=C/C=C/C=C/C=C/C=C/C=C/C=C/[C@H](O[C@@H]2O[C@H](C)[C@@H](O)[C@H](N)[C@@H]2O)C[C@@H]2O[C@](O)(C[C@@H](O)C[C@@H](O)[C@H](O)CC[C@@H](O)C[C@@H](O)CC(=O)O[C@H]1C)C[C@H](O)[C@H]2C(=O)O [Amphotericin B, reference compound] | 2.4 ± 1.5 x 10^4 CFU/mL | 2.5 ± 1.7 x 10^4 CFU/mL | 0.1 ± 0.1 x 10^4 CFU/mL | 0.1 ± 0.1 x 10^4 CFU/mL | 0.0 ± 0.0 x 10^4 CFU/mL | 0.0 ± 0.0 x 10^4 CFU/mL | 0.9 ± 0.7 x 10^4 CFU/mL | 1.1 ± 0.7 x 10^4 CFU/mL | 0.0 ± 0.0 x 10^4 CFU/mL | 0.0 ± 0.0 x 10^4 CFU/mL | 0.0 ± 0.0 x 10^4 CFU/mL | 0.0 ± 0.0 x 10^4 CFU/mL | 1.4 ± 0.3 x 10^4 CFU/mL | 1.4 ± 0.3 x 10^4 CFU/mL | 0.0 ± 0.0 x 10^4 CFU/mL | 0.0 ± 0.0 x 10^4 CFU/mL | 0.0 ± 0.0 x 10^4 CFU/mL | 0.0 ± 0.0 x 10^4 CFU/mL | MIC [1]: < 0.2 µg/mL; MIC ([1]; Cryptococcus neoformans, read-out: MIC): < 0.22 µM; MIC ([3]; 24 h, pH 7.5, read-out: MIC (μmol/L) 1841 24 h): 0.06 to 0.23 µmol/L; MIC ([3]; 24 h, read-out: MIC (mg/L) 1841 24 h): 0.06 to 0.12 mg/L; MIC ([3]; 48 h, pH 7.5, read-out: MIC (μmol/L) 1841 48 h): 0.13 µmol/L; MIC ([3]; 48 h, read-out: MIC (mg/L) 1841 48 h): 0.12 mg/L; MIC ([4]; 24 h, read-out: MIC (mg/L) H99 24 h): < 0.02 mg/L; MIC ([4]; 24 h, read-out: MIC (μmol/L) H99 24 h): < 0.02 µmol/L; MIC ([4]; 48 h, read-out: MIC (mg/L) H99 48 h): 0.04 to 0.08 mg/L; MIC ([4]; 48 h, read-out: MIC (μmol/L) H99 48 h): 0.04 to 0.09 µmol/L; MIC ([5]; 24 h, read-out: MIC (mg/L) KN99α 24 h): 0.08 mg/L; MIC ([5]; 24 h, read-out: MIC (μmol/L) KN99α 24 h): 0.09 µmol/L; MIC ([5]; 48 h, read-out: MIC (mg/L) KN99α 48 h): 0.16 mg/L; MIC ([5]; 48 h, read-out: MIC (μmol/L) KN99α 48 h): 0.17 µmol/L; cytotoxicity [6]: strong cytotoxicity |
| CC[C@H](C)[C@H](NC(=O)[C@H](Cc1ccc(O)cc1)NC(=O)[C@@H](NC(=O)[C@@H]1CCCN1C(=O)[C@H](CCCNC(=N)N)NC(=O)[C@H](CC(N)=O)NC(=O)[C@H](CC(N)=O)NC(=O)[C@H](CCCN)N=C(N(C)C)N(C)C)C(C)C)C(=O)N1CCC[C@H]1C(=O)N[C@@H](CCCNC(=N)N)C(=O)N1CCC[C@H]1C(=O)N[C@@H](CCCNC(=N)N)C(=O)N1CCC[C@H]1C(=O)N1CCC[C@H]1C(=O)N[C@@H](Cc1c[nH]cn1)C(=O)N1CCC[C@H]1C(=O)N[C@@H](CCCNC(=N)N)C(=O)N[C@@H](CC(C)C)C(N)=O [Api88] ({Orn(α-tetramethylguanidino)}-NNRPVYIPRPRPPHPRL-NH2; N-terminus and C-terminus assumed) | 3.0 ± 0.7 x 10^4 CFU/mL | 3.1 ± 0.8 x 10^4 CFU/mL | 3.0 ± 0.6 x 10^4 CFU/mL | 3.1 ± 0.7 x 10^4 CFU/mL | 1.5 ± 0.2 x 10^4 CFU/mL | 1.6 ± 0.3 x 10^4 CFU/mL | 2.7 ± 0.4 x 10^4 CFU/mL | 2.8 ± 0.5 x 10^4 CFU/mL | 3.0 ± 0.2 x 10^4 CFU/mL | 3.3 ± 0.3 x 10^4 CFU/mL | 1.7 ± 0.2 x 10^4 CFU/mL | 2.0 ± 0.4 x 10^4 CFU/mL | 2.4 ± 0.1 x 10^4 CFU/mL | 2.4 ± 0.1 x 10^4 CFU/mL | 1.0 ± 0.1 x 10^4 CFU/mL | 1.0 ± 0.1 x 10^4 CFU/mL | 0.1 ± 0.0 x 10^4 CFU/mL | 0.1 ± 0.0 x 10^4 CFU/mL | effect on CFU of C. neoformans strains H99 and KN99α [7]: did not significantly reduce the CFU; MIC (μmol/L) H99 24 h ([8]; H99 (serotype A, 24 h)): 7.0 µmol/L (≈ 16 µg/mL); MIC (mg/L) H99 48 h [8, 13]: 8 mg/L (≈ 3.49 µM); MIC (μmol/L) KN99α 48 h ([9]; KN99α (serotype A, mating type MATα, 48 h)): 7.0 µmol/L (≈ 16 µg/mL); MIC (mg/L) KN99α 24 h [9, 14]: 8 mg/L (≈ 3.49 µM); MIC at 48 h ([1]; 48 h, forward sequence compared with its scrambled sequence): 7.0 µM (≈ 16 µg/mL); MIC ([1]; strains 1841, H99, and KN99α, 24 h): ≥ 3.5 µM; MIC (μmol/L) 1841 48 h ([10]; 1841 (serotype D, 48 h, pH 7.5)): 7.0 µmol/L (≈ 16 µg/mL); MIC (mg/L) 1841 24 h [10, 14]: 8 mg/L (≈ 3.49 µM); MIC (mg/L) 1841 48 h [10, 13]: 16 mg/L (≈ 6.98 µM); damaged cells in SEM (C. neoformans 1841 [11]): only a small portion showed deep indentations; time-dependent antifungal effect (C. neoformans 1841 [12]): delayed antifungal effect |
